Data taken from patent publication US20060258750A1, “Use of bicyclo[2.2.1]heptane derivatives for the preparation of neuroprotective pharmaceutical compositions” (priority 2003, published 2006).
Entries after “also recorded” stand apart in the source; their conditions may differ. Marks after values point to notes of the source that are not given here.

Tests used:
[1] = system: brain damage after transient global cerebral ischaemia; conditions: global cerebral ischaemia in gerbils; cited from earlier work
[2] = 10 and 30 mg/kg after oral treatment; cited from earlier work
[3] = single 0.7 mg/kg oral treatment; cited from earlier work
[4] = cited from earlier work
[5] = 1 and 10 mg/kg after oral administration; cited from earlier work
[6] = system: Mongolian gerbils; assay: Global cerebral ischemia (BCO): locomotor activity in symmetrical Y-maze four days after surgery; format: in vivo
Procedure: (§1) In our experiments male Mongolian gerbils weighing 50-80 g were used. Deramciclane was administered at 3×30 mg/kg intraperitoneally 60 min before, 30 and 90 min after surgery. Deramciclane was suspended in 0.4% methyl-cellulose solution. In ether narcosis, the right and left common carotid arteries were exposed through an anterior midline cervical incision and isolated from the vagus nerves and the surrounding tissues. Full arrest of carotid blood flow was achieved by tightening an aneurysm clip for 3 min. During surgery the body temperature of the animals was kept at the individual preoperative level (37.5±0.5° C.) with the help of a heating pad and a heating lamp.
The Mongolian gerbils were placed in the centre of the maze then the number of entries into the three arms was recorded for 5 min. By definition, the animal performed an arm entry when it entered the arm and proceeded at least the distance of its body length. The gerbil was considered to exit the arm when it left it fully. Differences between groups were statistically evaluated by Kruskal-Wallis ANOVA. In case of p<0.05 significance Mann-Whitney U-test was used for paired comparisons.

[7] = 1 and 10 mg/kg ip.; cited from earlier work
[8] = molecular target: central 5-HT2A receptors (Homo sapiens, UniProt P28223); conditions: cited from earlier work
[9] = single oral dose of 3 mg/kg; cited from earlier work
[10] = system: hippocampal CA1 pyramidal cell death; assay: Global cerebral ischemia by 3 min bilateral carotid artery occlusion (BCO): hippocampal CA1 neuronal damage score; format: in vivo, Mongolian gerbils
Procedure: as §1
After behavioural testing the animals were anesthetized with 60 mg/kg i.p. pentobarbital (10 ml/kg) and perfused through the heart first with saline then with a fixative solution containing 0.1% glutaraldehyde, 4% paraformaldehyde, and 0.2% picric acid in 0.1 M phosphate buffer pH 7.4 for 30 min. The brain was removed from the skull and post-fixed for at least 1 week at 4° C. in the same fixative solution.
Alternate coronal sections of 60 μm thickness were cut from different levels of the dorsal hippocampus by a microtone. The sections were repeatedly washed in 0.1 M phosphate buffer then stained by silver impregnation.
The sections were examined under light microscopy and the overall neuronal damage in the hippocampal CA1 subfield in both hippocampi was scored on a 6-point scale: (0) undamaged, (1)<10%, (2) 10-30%, (3) 30-50%, (4) 50-70%, (5) 70-90%, and (6) 90-100% cell loss. Group differences between drug-treated and vehicle-treated groups were statistically analysed by Mann-Whitney U-test.

[11] = molecular target: central 5-HT2C receptors (Homo sapiens, UniProt P28335); conditions: cited from earlier work
[12] = 3 × 30 mg/kg i.p., compared to the BCO group
[13] = in the applied dose (3 × 30 mg/kg i.p.)

Sequence of central 5-HT2A receptors (P28223 whole entry): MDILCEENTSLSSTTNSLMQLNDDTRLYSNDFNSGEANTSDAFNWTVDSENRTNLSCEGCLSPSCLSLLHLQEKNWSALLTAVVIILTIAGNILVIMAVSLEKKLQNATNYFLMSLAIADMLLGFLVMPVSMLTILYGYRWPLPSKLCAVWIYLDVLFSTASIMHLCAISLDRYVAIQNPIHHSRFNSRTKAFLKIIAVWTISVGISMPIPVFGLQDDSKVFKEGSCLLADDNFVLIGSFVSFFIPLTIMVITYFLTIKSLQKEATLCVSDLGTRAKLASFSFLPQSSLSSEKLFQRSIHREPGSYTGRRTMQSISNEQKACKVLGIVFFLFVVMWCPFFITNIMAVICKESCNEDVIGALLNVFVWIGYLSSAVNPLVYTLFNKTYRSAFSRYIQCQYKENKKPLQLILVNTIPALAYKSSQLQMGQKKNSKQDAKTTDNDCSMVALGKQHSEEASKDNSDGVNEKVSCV
Sequence of central 5-HT2C receptors (P28335 33-458): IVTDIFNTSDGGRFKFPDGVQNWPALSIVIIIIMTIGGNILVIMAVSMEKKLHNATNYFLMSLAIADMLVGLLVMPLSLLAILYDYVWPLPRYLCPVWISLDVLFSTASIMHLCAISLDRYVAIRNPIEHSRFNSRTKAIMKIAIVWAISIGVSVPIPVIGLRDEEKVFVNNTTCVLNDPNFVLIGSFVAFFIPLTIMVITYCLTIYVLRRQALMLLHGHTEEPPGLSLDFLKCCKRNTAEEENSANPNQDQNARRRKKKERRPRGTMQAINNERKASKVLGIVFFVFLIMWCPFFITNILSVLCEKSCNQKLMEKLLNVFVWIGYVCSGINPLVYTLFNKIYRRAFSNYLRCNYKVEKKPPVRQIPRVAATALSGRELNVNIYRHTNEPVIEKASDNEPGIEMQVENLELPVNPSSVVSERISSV

| SMILES | neuroprotective activity [1] | activity in marble burying test [2] | time spent with social interactions [3] | anxiety caused by CCK in elevated plus maze test ([4]; CCK-induced anxiety) | activity in elevated plus maze test ([4]; in vivo) | activity in Vogel punished drinking test [5] | Number of arm entries ([6]; 3 × 30 mg/kg i.p., Y-maze, 5 min, four days after surgery, sham 40.25, BCO 65.44) | Effect % (number of arm entries) [6, 12] [%] | locomotor activity of animals (in words) [6, 13] | antidepressant activity in learned helplessness test [7] | binding to central 5-HT2A receptors (in words) [8] | activity in light-dark test [9] | CA1 cell death (score) ([10]; 3 × 30 mg/kg i.p. (60 min before, 30 and 90 min after surgery), 6-point scale 0-6, BCO control 4.90) | Effect % (CA1 cell death) [10, 12] [%] | proportion of cell death in the hippocampal CA1 region (in words) [10, 13] | binding to central 5-HT2C receptors (in words) [11] |
| --- | --- | --- | --- | --- | --- | --- | --- | --- | --- | --- | --- | --- | --- | --- | --- | --- |
| Cc1nc2sccn2c(=O)c1CCN1CCC(=C(c2ccc(F)cc2)c2ccc(F)cc2)CC1 [ritanserin] | did not show neuroprotective activity; also recorded: did not produce neuroprotective effect |  |  |  |  |  |  |  |  |  |  |  |  |  |  |  |
| CN(C)CCO[C@]1(c2ccccc2)C[C@H]2CC[C@]1(C)C2(C)C [deramciclane, (1R,2S,4R)-(−)-2-(2-dimethylaminoethoxy)-2-phenyl-1,7,7-trimethyl-bicyclo[2.2.1]heptane] |  | active | increased | antagonized | ineffective | active | 38.78** | −100 | decreased the locomotor activity of animals into the normal range | produced antidepressant activity | binds primarily | active | 0.89** score | −82 | significantly reduced | binds primarily |
